Laboratory results reported in patent US9220795B2, “Indole derivatives” (priority 2011, dated 2015).

Assays:
Wistar rat heart PBR = biological target: T1, Wistar rat heart PBR (Rattus norvegicus, UniProt P16257); assay: In vitro potency assay: competition for binding to PBR against 0.3 nM [3H]PK-11195; conditions: non-radioactive analogues; vs 0.3 nM [3H]PK-11195; 15 minutes at 25° C.; 6 concentrations
T1 construct: from tissue; host or cells: Wistar rat heart
Method: Affinity for PBR was screened using a method adapted from Le Fur et al (Life Sci. 1983; USA 33: 449-57). Non-radioactive analogues of in vivo imaging agents of the invention were tested along with a non-radioactive analogue of a previous tetracyclic indole imaging agent (from co-pending patent application PCT/EP2009/062827; synthesis described in Example 17 below):
Each test compound (dissolved in 50 mM Tris-HCl, pH 7.4, 10 mM MgCl2 containing 1% DMSO) competed for binding to Wistar rat heart PBR against 0.3 nM [^3H] PK-11195. The reaction was carried out in 50 mM Tris-HCl, pH 7.4 10 mM MgCl2 for 15 minutes at 25° C.

[1] = In vivo biodistribution method; design: species or system Adult male Wistar rats; conditions: for Brain 2 min (% ID/g): 2 min after injection via lateral tail vein, 1-3 MBq, n=3; for % Activity in Brain = Parent @ 60 min: 60 min after injection; for OB 30 min (% ID/g): olfactory bulb, 30 min after injection; for OB: Str 30 min: ratio olfactory bulb to striatum at 30 min; for Str 2: 30 min: ratio striatum 2 min to 30 min
Method: Imaging agents of the invention were tested in an in vivo biodistribution model along with a previous tetracyclic imaging agent (from co-pending patent application PCT/EP2009/062827; synthesis described in Example 18 below).

Row | Compound | Ki (Wistar rat heart PBR) [nM] | Brain 2 min (% ID/g) [1] [% ID/g] | % Activity in Brain = Parent @ 60 min [1] [%] | OB 30 min (% ID/g) [1] [% ID/g] | OB: Str 30 min [1] | Str 2: 30 min [1]
1 | CCN(CC)C(=O)C1Sc2ccccc2-c2c1c1cc(OC)ccc1n2CCF (racemic) [tetracyclic indole, (+−)-11-(2-[^18F]fluoroethyl)-8-methoxy-6,11-dihydro-5-thia-11-aza-benzo[a]fluorene-6-carboxylic acid diethyl amide, reference compound] | 0.369 |  |  |  |  | 
2 | CCN(CC)C(=O)C1Sc2ccccc2-c2c1c1cc(OC)ccc1n2CC[18F] (racemic) [tetracyclic indole, (+−)-11-(2-[^18F]fluoroethyl)-8-methoxy-6,11-dihydro-5-thia-11-aza-benzo[a]fluorene-6-carboxylic acid diethyl amide, reference compound] |  | 0.32 | 96.00 | 0.31 | 2.07 | 1.73
3 | CCN(CC)C(=O)C1CCCc2c1c1c(OC)cccc1n2CCF (stereo not drawn) [Imaging agent 5, 9-(2-[^18F]-Fluoro-ethyl)-5-methoxy-2,3,4,9-tetrahydro-1H-carbazole-4-carboxylic acid diethylamide] | 2.35 |  |  |  |  | 
4 | O=C(C1CCCc2c1c1ccccc1n2CCF)N1CCCCC1 (stereo not drawn) [Imaging agent 6, [9-(2-[^18F]-Fluoro-ethyl)-2,3,4,9-tetrahydro-1H-carbazol-4-yl]-piperidin-1-yl-methanone] | 18.3 |  |  |  |  | 
5 | CN(Cc1ccccc1)C(=O)C1CCCc2c1c1ccccc1n2CCF (stereo not drawn) [Imaging agent 7, 9-(2-[^18F]fluoro-ethyl)-2,3,4,9-tetrahydro-1H-carbazole-4-carboxylic acid benzyl-methyl-amide] | 1.25 |  |  |  |  | 
6 | CN(Cc1ccccc1)C(=O)C1CCCc2c1c1ccccc1n2CC[18F] (stereo not drawn) [Imaging agent 7, 9-(2-[^18F]fluoro-ethyl)-2,3,4,9-tetrahydro-1H-carbazole-4-carboxylic acid benzyl-methyl-amide] |  | 0.55 | 81.28 | 0.34 | 3.40 | 4.70
7 | CCN(CC)C(=O)C1CCCc2c1c1cc(F)ccc1n2CCF (stereo not drawn) [Imaging agent 9, 6-Fluoro-9-(2-[^18F]fluoro-ethyl)-2,3,4,9-tetrahydro-1H-carbazole-4-carboxylic acid diethylamide] | 3.79 |  |  |  |  | 
8 | CCN(CC)C(=O)C1CCCc2c1c1cc(F)ccc1n2CC[18F] (stereo not drawn) [Imaging agent 9, 6-Fluoro-9-(2-[^18F]fluoro-ethyl)-2,3,4,9-tetrahydro-1H-carbazole-4-carboxylic acid diethylamide] |  | 0.56 | 84.30 | 0.41 |  | 
9 | CCN(CC)C(=O)C1CCCc2c1c1c(F)cccc1n2CC[18F] (stereo not drawn) [Imaging agent 10, 5-Fluoro-9-(2-[^18F]fluoro-ethyl)-2,3,4,9-tetrahydro-1H-carbazole-4-carboxylic acid diethylamide] |  | 0.50 | 92.70 | 0.51 |  | 
10 | CCN(CC)C(=O)C1CC(C)Cc2c1c1ccccc1n2CCF (stereo not drawn) [Imaging agent 11, 9-(2-[^18F]-Fluoro-ethyl)-2-methyl-2,3,4,9-tetrahydro-1H-carbazole-4-carboxylic acid diethylamide] | 2.12 |  |  |  |  | 
11 | CCN(CC)C(=O)C1CC(C)Cc2c1c1ccccc1n2CC[18F] (stereo not drawn) [Imaging agent 11, 9-(2-[^18F]-Fluoro-ethyl)-2-methyl-2,3,4,9-tetrahydro-1H-carbazole-4-carboxylic acid diethylamide] |  | 0.51 | 90.37 | 0.42 | 3.50 | 3.33
